pEC50: −log10 of the molar value.
What was measured:
HCV GT1a(H77) replicon = experiment: HCV replicon luciferase reporter assay, genotype 1a; format: cell-based, HCV genotype 1a; details: Hepatitis C virus, 72 h, HUH-7 cells, Renilla luciferase, 3 days incubation, read-out: LE_1a (EC50, range)
How it was run: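 Huh-7 cells stably carried a GT1a(H77) Renilla luciferase replicon with NS3 P1496L and NS5A S2204I adaptive mutations. Luminescence was read after 2 h with 7.5 μM EnduRen, and EC50 came from a four-parameter logistic fit; CC50 came from multiplexed Cell Titer-Blue (8 h).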

HCV GT1b(Con1) replicon = experiment: HCV replicon luciferase reporter assay, genotype 1b; format: cell-based, HCV genotype 1b; details: Hepatitis C virus, 72 h, HUH-7 cells, Renilla luciferase, 3 days incubation, read-out: LE_1b (EC50, range)
How it was run: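 HUH-7 cells stably carrying a Con1 GT1b replicon with Renilla luciferase and Ser1179Ile adaptive mutation; 3.0×10^3 cells/well, DMEM 4% FCS, 0.5% DMSO, twenty-point 3-fold titration, 3 days 37 °C. Luminescence 2 h after 7.5 μM EnduRen; EC50 by four-parameter logistic fit. CC50 from multiplexed Cell Titer-Blue fluorescence (8 h).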

Compound	pEC50 (HCV GT1a(H77) replicon)	pEC50 (HCV GT1b(Con1) replicon)
Cc1cnc(-c2cc(O[C@@H]3C[C@H]4C(=O)N[C@]5(C(=O)NS(=O)(=O)C6(C)CC6)C[C@H]5/C=C\CC[C@@H](C)C[C@@H](C)[C@H](NC(=O)OC5(C(F)(F)F)CCCOC5)C(=O)N4C3)ccn2)s1 (stereo partly drawn) [Compound 1044, 3-(trifluoromethyl)tetrahydro-2H-pyran-3-yl ((2R,6S,7R,9R,13aS,14aR,16aS,Z)-7,9-dimethyl-14a-(((1-methylcyclopropyl)sulfonyl)carbamoyl)-2-((2-(5-methylthiazol-2-yl)pyridin-4-yl)oxy)-5,16-dioxo-1,2,3,5,6,7,8,9,10,11,13a,14,14a,15,16,16a-hexadecahydrocyclopropa[e]pyrrolo[1,2-a][1,4]diazacyclopentadecin-6-yl)carbamate]	8.30 to 9.00	9.00 to 9.29
Cc1csc(-c2cc(O[C@@H]3C[C@H]4C(=O)N[C@]5(C(=O)NS(=O)(=O)C6(C)CC6)C[C@H]5/C=C\CC[C@@H](C)C[C@@H](C)[C@H](NC(=O)OC(C)(C)C(F)(F)F)C(=O)N4C3)ccn2)n1 [Compound 1045, 1,1,1-trifluoro-2-methylpropan-2-yl ((2R,6S,7R,9R,13aS,14aR,16aS,Z)-7,9-dimethyl-14a-(((1-methylcyclopropyl)sulfonyl)carbamoyl)-2-((2-(4-methylthiazol-2-yl)pyridin-4-yl)oxy)-5,16-dioxo-1,2,3,5,6,7,8,9,10,11,13a,14,14a,15,16,16a-hexadecahydrocyclopropa[e]pyrrolo[1,2-a][1,4]diazacyclopentadecin-6-yl)carbamate]	8.30 to 9.00	9.30 to 10.00
CC(C)Oc1ccc(-c2cc(O[C@@H]3C[C@H]4C(=O)N[C@]5(C(=O)NS(=O)(=O)C6(C)CC6)C[C@H]5/C=C\CC[C@@H](C)C[C@@H](C)[C@H](NC(=O)OC(C)(C)C(F)(F)F)C(=O)N4C3)cc(-c3nccs3)n2)cn1 [Compound 1046, 1,1,1-trifluoro-2-methylpropan-2-yl ((2R,6S,7R,9R,13aS,14aR,16aS,Z)-2-((6′-isopropoxy-6-(thiazol-2-yl)-[2,3′-bipyridin]-4-yl)oxy)-7,9-dimethyl-14a-(((1-methylcyclopropyl)sulfonyl)carbamoyl)-5,16-dioxo-1,2,3,5,6,7,8,9,10,11,13a,14,14a,15,16,16a-hexadecahydrocyclopropa[e]pyrrolo[1,2-a][1,4]diazacyclopentadecin-6-yl)carbamate]	8.30 to 9.00	8.30 to 9.00
CC(C)Oc1ccc(-c2cc(O[C@@H]3C[C@H]4C(=O)N[C@]5(C(=O)NS(=O)(=O)C6(C)CC6)C[C@H]5/C=C\CC[C@@H](C)C[C@@H](C)[C@H](NC(=O)OC5(C(F)(F)F)CCCOC5)C(=O)N4C3)cc(-c3nccs3)n2)cn1 (stereo partly drawn) [Compound 1047, 3-(trifluoromethyl)tetrahydro-2H-pyran-3-yl ((2R,6S,7R,9R,13aS,14aR,16aS,Z)-2-((6′-isopropoxy-6-(thiazol-2-yl)-[2,3′-bipyridin]-4-yl)oxy)-7,9-dimethyl-14a-(((1-methylcyclopropyl)sulfonyl)carbamoyl)-5,16-dioxo-1,2,3,5,6,7,8,9,10,11,13a,14,14a,15,16,16a-hexadecahydrocyclopropa[e]pyrrolo[1,2-a][1,4]diazacyclopentadecin-6-yl)carbamate]	8.30 to 9.00	9.00 to 9.29
CC(C)Oc1ccc(-c2cc(O[C@@H]3C[C@H]4C(=O)N[C@]5(C(=O)NS(=O)(=O)C6(C)CC6)C[C@H]5/C=C\CC[C@@H](C)C[C@@H](C)[C@H](NC(=O)OC5(C(F)(F)F)CCCOC5)C(=O)N4C3)cc(-c3ncccn3)n2)cc1 (stereo partly drawn) [Compound 1048, 3-(trifluoromethyl)tetrahydro-2H-pyran-3-yl ((2R,6S,7R,9R,13aS,14aR,16aS,Z)-2-((2-(4-isopropoxyphenyl)-6-(pyrimidin-2-yl)pyridin-4-yl)oxy)-7,9-dimethyl-14a-(((1-methylcyclopropyl)sulfonyl)carbamoyl)-5,16-dioxo-1,2,3,5,6,7,8,9,10,11,13a,14,14a,15,16,16a-hexadecahydrocyclopropa[e]pyrrolo[1,2-a][1,4]diazacyclopentadecin-6-yl)carbamate]	8.30 to 9.00	8.30 to 9.00
